From US10351534B2, “Use of 3-carboxy-N-ethyl-N,N-dimethylpropan-1-aminium salts in the treatment of cardiovascular disease” (JSC GRINDEKS, priority 2011, dated 2019)
Marks after values point to notes of the source that are not given here.

Assays:
[1] = test system: isolated rat heart; experiment: Isolated rat heart infarction study (after p.o. treatment); format: in vivo; settings: for Infarct size, % of control: 20 mg/kg p.o. daily, isolated Wistar rat heart, 60 min occlusion, 150-min reperfusion, mean±s.e.m. of 9-10 animals; for decrease of infarct size: 20 mg/kg p.o., isolated rat heart infarction model, versus control
Description: Fifty male, 10 weeks old Wistar rats weighing 200-250 g were housed under standard conditions (21-23° C., 12 h light-dark cycle) with unlimited access to food (R3 diet, Lactamin AB, Sweden) and water.
Rats were adapted to local conditions for two weeks before the start of treatment. Meldonium dihydrate at a dose of 20 mg/kg, gamma-butyrobetaine at a dose of 20 mg/kg and 3-carboxy-N-ethyl-N,N-dimethylpropan-1-aminium salts at dose of 20 mg/kg were administered p.o. daily for 8 weeks. Control rats received water.
The isolated rat heart experiment was performed essentially as described earlier (Liepinsh et al., J. Cardiovasc. Pharmacol. 2006; 48(6):314-9). Twenty-four hours after the last drug administration hearts were excised and retrogradely perfused via the aorta at a constant pressure with oxygenated Krebs-Henseleit buffer at 37° C. The heart rate, left ventricle end-diastolic pressure and left ventricle developed pressure were continuously recorded. Coronary flow was measured using an ultrasound flow detector (HSE) and the PowerLab 8/30 system from ADInstruments. The hearts were perfused for 20 min to stabilize the hemodynamic functions and then occlusion was performed for 60 min by constricting threads through a plastic tube. Successful occlusion was confirmed by a coronary flow decrease of about 40 percent. Reperfusion was achieved by releasing the threads. At the end of the 150-min reperfusion period, the risk zone was delineated with 0.1% methylene blue. The hearts were then sectioned transversely from the apex to the base in five slices 2 mm in thickness and incubated in 1% triphenyltetrazolium chloride in phosphate buffer (pH 7.4, 37° C.) for 10 min to stain viable tissue red and necrotic tissue white. Computerized planemetric analysis of Sony A900 photographs was performed using Image-Pro Plus 6.3 software to determine the area at risk and area of necrosis expressed as a % of the left ventricle. The obtained values were then used to calculate the infarct size (IS) as a % of risk area according to the formula: Infarct Size=Area of Necrosis/Area at Risk×100%.
The anti-infarction effect of examined substances was investigated in an isolated rat heart infarction model. During occlusion of left coronary artery, the coronary flow in all experimental groups was decreased for 40% (from 11 ml/min to 7 ml/min). Moreover, the drop of developed left ventricular pressure for 50% was observed. […] In reperfusion stage, coronary flow, developed left ventricular pressure, ±dp/dt values were recovered till about 80% of control level. There were no significant differences between control and treatment groups.

[2] = s.c.; cited from earlier work

## CC[N+](C)(C)CCCC(=O)O.O=C([O-])/C=C/C(=O)O [3-carboxy-N-ethyl-N,N-dimethylpropan-1-aminium (2E)-3-carboxyacrylate]
[1]
  Infarct size, % of control: 46.5 ± 7.0*^,#,$ % of control
  decrease of infarct size: 53.5%

## C[N+](C)(C)CCCC(=O)[O-] [Gamma-butyrobetaine, γ-Butyrobetaine, reference compound]
[1]
  Infarct size, % of control: 87.6 ± 11.4 % of control
  decrease of infarct size: 12.4%
[2]
  LD50: > 7000 mg/kg

## CC[N+](C)(C)CCCC(=O)O [3-carboxy-N-ethyl-N,N-dimethylpropan-1-aminium dihydrogen phosphate]
[1]
  Infarct size, % of control: 56.1 ± 4.4*^,#,$ % of control
  decrease of infarct size: 43.9%

## CC[N+](C)(C)CCCC(=O)O.O=C([O-])c1cc(=O)[nH]c(=O)[nH]1 [3-carboxy-N-ethyl-N,N-dimethylpropan-1-aminium 2,6-dioxo-1,2,3,6-tetrahydropyrimidine-4-carboxylate]
[1]
  Infarct size, % of control: 60.6 ± 6.7*^,#,$ % of control
  decrease of infarct size: 39.4%

## CC[N+](C)(C)CCCC(=O)O.O=C([O-])CCC(=O)O [3-carboxy-N-ethyl-N,N-dimethylpropan-1-aminium 3-carboxypropanoate]
[1]
  Infarct size, % of control: 62.9 ± 4.7*^,#,$ % of control
  decrease of infarct size: 37.1%

## 3-carboxy-N-ethyl-N,N-dimethylpropan-1-aminium 2-(acetyloxy)benzoate
[1]
  Infarct size, % of control: 61.6 ± 6.7*^,#,$ % of control
  decrease of infarct size: 38.4%

## C[N+](C)(C)NCCC(=O)[O-] [Meldonium dihydrate, 3-(2,2,2-Trimethylhydrazinium) propionate dihydrate, reference compound]
[1]
  Infarct size, % of control: 117.9 ± 7.9 % of control
